Results from US7556828B2, “Pharmaceutical composition for treatment of BPH and preparation thereof” (priority 2003, dated 2009).
Marks after values point to notes of the source that are not given here.

Tests used:
[1] = test system: otic swelling caused by mixed inflammatory solution of croton oil; experiment: Otic swelling caused by mixed inflammatory solution of croton oil; format: in vivo, mice; conditions: 20 mg/kg once a day for 5 days
Method: 1. Impact on Otic Swelling Caused by Mixed Inflammatory Solution of Croton Oil. […] The treatments were administered to the mice once a day for 5 days. […] Four hours after inflammation, the mice were killed with a disjointed cervical vertebra method. The two ears were cut along the auricle baseline. Equal parts of the two ears (by area) were cut off and weighed on weighing scales to test twisting force. The degree of swelling/inflammation was obtained by subtracting the weight of the right ear from the weight of the left ear. The degrees of swelling between the control (contrast) groups and the test groups were analyzed statistically and the swelling inhibition rate was obtained.

tampon granuloma = experiment: Tampon granuloma of rats; format: in vivo; conditions: 20 mg/kg once a day for 7 days
Method: Impact on Tampon Granuloma of Rats The same experimental materials and animals as in Experimental Example 2 were used. However, sixty (60) 150-180 g male rats were used. Under ether anesthesia and normal disinfection, two±1 mg sterilized tampons were embedded under the inguinal skins on either side of the bodies. […] The treatments were administered into the rats' stomachs once a day for 7 days. On the eighth day, the rats were killed via a disjointed cervical vertebra method. The tampons were removed and placed in a 60° C. oven for 12 hours and then weighed.

[2] = test system: prostate hyperplasia caused by testosterone propionate; experiment: Prostate hyperplasia caused by testosterone propionate in rats, comparison of anti-prostate hyperplasia medicaments (Experimental Example 1); format: in vivo, Wistar rats; conditions: for Prostate Gland Factors, Sum of three lobes (anterior, head and posterior lobes) / Inhibition rate % (Anterior lobe) / Inhibition rate % (Sum of three lobes): 30 days; for Inhibition rate % (Anterior lobe) / Inhibition rate % (Sum of three lobes): vs contrast group; for Prostate Gland Factors, Anterior lobe: once a day for 30 days, castrated rats + testosterone propionate 5 mg/Kg
Method: The effect of anti-prostate hyperplasia medicaments and the composition of the present invention in rats on prostate hyperplasia caused by testosterone propionate was evaluated as discussed below.
• 1. PROSCAR (5-α-reductase inhibitor): tablets, produced by Merck & Co., Inc., (UK) Co., prepared as 0.5 mg/ml medicament. • 2. Saw Palmetto tablets, produced by Zhejiang Conba Pharmaceutical Co. Ltd., prepared with distilled water into […]. • 3. Longbishu Capsules: produced by SHIJIAZHUAN KEDI Pharmaceutical Co., Ltd., prepared with distilled water into 0.18 g/ml medical liquid. • 4. The final extract of Example 9, prepared into […] medical liquid. • 5. Estradiol Benzoate injection • 6. Testosterone propionate injection Test Method and Results
Six 130 g-150 g male Wistar rats were anaesthetized with ether. The testes of each rat were removed under axenic conditions, and the test rats were bred for a week after operation. The rats were divided at random into 6 groups, with 6 rats in each group. All groups of animals were hyped each day with 5 mg/Kg testosterone propionate dissolved in prepared peanut oil. The control (contrast) groups were administered a physiological salt solution. The test groups were administered a treatment of 5 mg/Kg PROSCAR, 5 g/Kg Saw Palmetto, 1.8 g/Kg longbishu, and 6 g/Kg of the final extract obtained in Example 9 The treatment took the form of a1 ml/100 g medicament; for hypodermic injections of 50 μg/Kg estradiol benzoate, the volume was […], administered once a day for 30 days. 24 hours after the final treatment, all the rats were killed. The whole prostate glands were anatomized and placed in formalin. Extraneous fat was cut away from the prostate glands and the liquid on the surface was dried with filter papers. The prostate glands were then weighed with a tissue balance to calculate the weight.

[3] = test system: testosterone propionate-induced prostate hyperplasia; experiment: Testosterone propionate-induced prostate hyperplasia in rats (Experimental Example 5); format: in vivo, Wistar rats
Method: Impact on Testosterone Propionate-Induced Prostate Hyperplasia in Rats
The same experimental materials and animals as in Experimental Example 2 were used. However, fifty (50) 130-150 g male Wistar rats were used. Under ether anesthesia and in sterilized surroundings, both testes of each rat were removed. The rats were then bred for a week after the operation. Next, the rats were randomly divided into 5 groups of 10 rats each. Each group of animals were hyped with 5 mg/kg testosterone propionate dissolved in prepared oil once a day. During the same time period, each group was also given one of the treatments: the control (contrast) group was administered a physiological saline solution; three test groups were administered a dose (1.5, 3 and 6 g/kg) of the extract from Example 9 in a preparation of 1 m/100 g. The positive control (contrast) group was hyped with 50 μg/kg estradiol benzoate in a volume of 0.05 ml/100 g, once a day for 30 days. After the last treatment, the rats were killed and their whole prostate glands were anatomized. The prostate glands were placed in formalin. All the fat was cut away from the prostate glands after they were removed from the formalin. The remaining formalin on the prostate gland surface was dried with filter papers. The prostate glands were then placed in 70% ethanol and fixed for 24 hours. Next, the prostate glands were removed from the ethanol and placed on filter papers. The anterior, head and posterior lobes of the prostate glands were separated and weighed on a weighing scale to test twisting force. The transverse diameter, diameter and height of the anterior lobes of the prostate glands were measured with a two-foot vernier. The volume of the anterior lobe of a prostate gland was obtained by multiplying the values of the three measurements. Finally, the anterior lobes were examined with tectology, and the diameter of the prostate gland cavity and the height of the glandular epithelium cells were measured. Non-pairing t-examinations among the groups were conducted for all indexes. The values of the treatment groups were compared to the control (contrast) groups in order to determine the average difference.

[4] = dose 50 g/Kg (so in the source), hypodermic
[5] = 50 μg/kg once a day for 30 days
[6] = estradiol benzoate 50 μg/kg, 30 days, vs control

## CC(=O)OCC(=O)[C@@]1(O)CC[C@H]2[C@@H]3CCC4=CC(=O)CC[C@]4(C)[C@H]3[C@@H](O)C[C@@]21C [Hydrocortisone, Hydrocortisone acetate]
[1]
  Inhabitation rate %: 46.77%
[1]; 4 hours after croton oil
  Swelling degree (mg) (x ± SD): 9.50 ± 2.93 mg
Tampon granuloma
  Inhibition rate %: 42.43%
  Weight of tampon granuloma (mg x ± SD): 26.45 ± 2.61 mg

## C[C@]12CC[C@@H]3c4ccc(OC(=O)c5ccccc5)cc4CC[C@H]3[C@@H]1CC[C@@H]2O [estradiol benzoate, Estradiol Benzoate]
[2]; [4]
  Prostate Gland Factors, Sum of three lobes (anterior, head and posterior lobes): 585.3 ± 80.5 mg/100 g
  Inhibition rate % (Anterior lobe): 36.7** %
  Inhibition rate % (Sum of three lobes): 18.8** %
  Prostate Gland Factors, Anterior lobe: 180.1 ± 55.8 mg/100 g
[3]; [5]
  Volume of anterior lobe (cm3): 0.42 ± 0.12 cm3
  rat prostate factors, Anterior lobe: 127.2 ± 23.4 mg/100 g
  rat prostate factors, Head lobe: 51.2 ± 10.7 mg/100 g
[3]; 30 days after treatment, microscopic examination
  hyperplasia of the diameter of the glandular cavity of prostate anterior and head lobes (histology): inhibit hyperplasia
[3]; [6]
  inhibition rate for head lobes (weight): 30.2%
  inhibition rate for posterior lobe (weight): 12.5%
  inhibition rate for prostate anterior lobe (weight): 35.3%
  inhibition rate, volume of prostate anterior lobe: 45.5%

## CC(C)(C)NC(=O)[C@H]1CC[C@H]2[C@@H]3CC[C@H]4NC(=O)C=C[C@]4(C)[C@H]3CC[C@]12C [PROSCAR]
[2]; dose 5 mg/Kg
  Prostate Gland Factors, Sum of three lobes (anterior, head and posterior lobes): 453.4 ± 59.1 mg/100 g
  Inhibition rate % (Anterior lobe): 42.3** %
  Inhibition rate % (Sum of three lobes): 37.1** %
  Prostate Gland Factors, Anterior lobe: 164.2 ± 31.4 mg/100 g
